Measured values taken from patent US10294202B2, “Pyrrolidinones as herbicides” (FMC Corporation, priority 2013, dated 2019).

Key:
[1] = test system: johnsongrass; test: Test C pre-/postemergence herbicide test; format: in vivo, Sorghum halepense; conditions: Preemergence; for Plant response rating (scale of 0 to 100), Johnsongrass: 250 g ai/ha
From the text: (§1) Seeds of plant species selected from blackgrass (Alopecurus myosuroides), ryegrass, Italian (Italian ryegrass, Lolium multiflorum), wheat (winter wheat, Triticum aestivum), galium (catchweed bedstraw, Galium aparine), corn (Zea mays), crabgrass, large (large crabgrass, Digitaria sanguinalis), foxtail, giant (giant foxtail, Setaria faberii), johnsongrass (Sorghum halepense), lambsquarters (Chenopodium album), morningglory (Ipomoea coccinea), nutsedge, yellow (yellow nutsedge, Cyperus esculentus), pigweed (Amaranthus retroflexus), ragweed (common ragweed, Ambrosia elatior), soybean (Glycine max), barnyardgrass (Echinochloa crus-galli), oilseed rape (Brassica napus), waterhemp (common waterhemp, Amaranthus rudis), kochia (Kochia scoparia), oat, wild (wild oat, Avena fatua), surinam grass (Brachiaria decumbens), foxtail, green (green foxtail, Setaria viridis), goosegrass (Eleusine indica), bromegrass, downy (downy bromegrass, Bromus tectorum), nightshade (eastern black nightshade, Solanum ptycanthum), cocklebur (common cocklebur, Xanthium strumarium), cupgrass, woolly (woolly cupgrass, Eriochloa villosa), bermudagrass (Cynodon dactylon), sunflower, (common oilseed sunflower, Helianthus annuus), Russian thistle (Salsola kali) and velvetleaf (Abutilon theophrasti) were planted into a blend of loam soil and sand and treated preemergence with test chemicals formulated in a non-phytotoxic solvent mixture which included a surfactant. At the same time, plants selected from these crop and weed species and also barley (winter barley, Hordeum vulgare), […]), chickweed (common chickweed, Stellaria media), deadnettle (henbit deadnettle, Lamium amplexicaule), and canarygrass (littleseed canarygrass, Phalaris minor) were planted in pots containing Redi-Earth® planting medium (Scotts Company, 14111 Scottslawn Road, Marysville, Ohio 43041) comprising spaghnum peat moss, vermiculite, wetting agent and starter nutrients and treated with postemergence applications of test chemicals formulated in the same manner. Plants ranged in height from 2 to 18 cm (1- to 4-leaf stage) for postemergence treatments. Treated plants and controls were maintained in a greenhouse for 13 to 15 days, after which time all species were compared to controls and visually evaluated. Plant response ratings, summarized in Table C, are based on a scale of 0 to 100 where 0 is no effect and 100 is complete control. A dash (-) response means no test result.

[2] = test system: corn; test: Test C pre-/postemergence herbicide test; format: in vivo, Zea mays; conditions: Preemergence; for Plant response rating (scale of 0 to 100), Corn: 250 g ai/ha
From the text: as §1

[3] = test system: soybean; test: Test C pre-/postemergence herbicide test; format: in vivo, Glycine max; conditions: Preemergence
From the text: as §1

[4] = test system: blackgrass; test: Test C pre-/postemergence herbicide test; format: in vivo, Alopecurus myosuroides; conditions: Preemergence; for Plant response rating (scale of 0 to 100), Blackgrass: 250 g ai/ha
From the text: as §1

[5] = test system: oilseed rape; test: Test C pre-/postemergence herbicide test; format: in vivo, Brassica napus; conditions: Preemergence; for Plant response rating (scale of 0 to 100), Oilseed Rape: 250 g ai/ha
From the text: as §1

[6] = test system: galium; test: Test C pre-/postemergence herbicide test; format: in vivo, Galium aparine; conditions: Preemergence; for Plant response rating (scale of 0 to 100), Galium: 250 g ai/ha
From the text: as §1

[7] = test system: ryegrass, Italian; test: Test C pre-/postemergence herbicide test; format: in vivo, Lolium multiflorum; conditions: Preemergence
From the text: as §1

[8] = test system: waterhemp; test: Test C pre-/postemergence herbicide test; format: in vivo, Amaranthus rudis; conditions: Preemergence
From the text: as §1

[9] = test system: crabgrass, large; test: Test C pre-/postemergence herbicide test; format: in vivo, Digitaria sanguinalis; conditions: Preemergence; for Plant response rating (scale of 0 to 100), Crabgrass, Large: 250 g ai/ha
From the text: as §1

[10] = test system: wheat; test: Test A pre-/postemergence herbicide test; format: in vivo, Triticum aestivum; conditions: Postemergence; for Plant response rating, Wheat: 125 g ai/ha
How it was run: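 Visual injury ratings, 0 = no effect, 100 = complete control, taken ~10 days after treatment against untreated greenhouse controls. Preemergence: directed soil spray onto seeded loam/sand pots. Postemergence: spray onto plants at one- to two-leaf stage, 2–10 cm tall.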

[11] = test system: ragweed; test: Test C pre-/postemergence herbicide test; format: in vivo, Ambrosia elatior; conditions: Preemergence
From the text: as §1

[12] = 62 g ai/ha, scale 0 to 100 (0 no effect, 100 complete control)
[13] = 31 g ai/ha, scale 0 to 100, 0 is no effect and 100 is complete control
[14] = 125 g ai/ha, scale 0 to 100 (0 no effect, 100 complete control)

## O=C1NCC(c2ccc(OC(F)F)cc2)C1C(=O)Nc1cccc(F)c1F (racemic) [Compound 350]
[1]; [12]
  Johnsongrass plant response rating: 0
[1]; 125 g ai/ha, scale 0 to 100
  Plant response rating, Johnsongrass: 0
[1]
  Plant response rating (scale of 0 to 100), Johnsongrass: 30
[1]; 31 g ai/ha, scale 0 to 100
  Plant response rating, Johnsongrass: 0
[2]; [12]
  Corn plant response rating: 0
[2]; 125 g ai/ha, scale 0 to 100
  Plant response rating, Corn: 5
[2]
  Plant response rating (scale of 0 to 100), Corn: 40
[2]; 31 g ai/ha, scale 0 to 100
  Plant response rating, Corn: 0
[3]; [12]
  Soybean plant response rating: 0
[3]; 125 g ai/ha, scale 0 to 100
  Plant response rating, Soybean: 0
[3]; 31 g ai/ha, scale 0 to 100
  Plant response rating, Soybean: 0
[4]; [12]
  Blackgrass plant response rating: 0
[4]; 125 g ai/ha, scale 0 to 100
  Plant response rating, Blackgrass: 50
[4]
  Plant response rating (scale of 0 to 100), Blackgrass: 55
[4]; 31 g ai/ha, scale 0 to 100
  Plant response rating, Blackgrass: 0
[5]; [12]
  Oilseed Rape plant response rating: 70
[5]; 125 g ai/ha, scale 0 to 100
  Plant response rating, Oilseed Rape: 80
[5]
  Plant response rating (scale of 0 to 100), Oilseed Rape: 85
[5]; 31 g ai/ha, scale 0 to 100
  Plant response rating, Oilseed Rape: 5
[6]; [12]
  Galium plant response rating: 85
[6]; 125 g ai/ha, scale 0 to 100
  Plant response rating, Galium: 90
[6]
  Plant response rating (scale of 0 to 100), Galium: 90
[6]; 31 g ai/ha, scale 0 to 100
  Plant response rating, Galium: 30
[7]; [12]
  Ryegrass, Italian plant response rating: 0
[7]; 125 g ai/ha, scale 0 to 100
  Plant response rating, Ryegrass, Italian: 5
[7]; 31 g ai/ha, scale 0 to 100
  Plant response rating, Ryegrass, Italian: 0
[8]; [12]
  Waterhemp plant response rating: 50
[8]; 125 g ai/ha, scale 0 to 100
  Plant response rating, Waterhemp: 90
[8]; 31 g ai/ha, scale 0 to 100
  Plant response rating, Waterhemp: 0
[9]; [12]
  Crabgrass, Large plant response rating: 90
[9]; 125 g ai/ha, scale 0 to 100
  Plant response rating, Crabgrass, Large: 90
[9]
  Plant response rating (scale of 0 to 100), Crabgrass, Large: 90
[9]; 31 g ai/ha, scale 0 to 100
  Plant response rating, Crabgrass, Large: 90
[10]; visual rating on 0 to 100 scale (0 no effect, 100 complete control), approx. 10 days
  Plant response rating, Wheat: 20
[11]; [12]
  Ragweed plant response rating: 0
[11]; 125 g ai/ha, scale 0 to 100
  Plant response rating, Ragweed: 5
[11]; 31 g ai/ha, scale 0 to 100
  Plant response rating, Ragweed: 0

## O=C1NCC(c2ccc(Cl)cc2)C1C(=O)Nc1cccc(F)c1F (stereo not shown) [Compound 218]
[1]; [13]
  Johnsongrass plant response rating: 0
[1]; [12]
  Johnsongrass plant response rating: 10
[1]; [14]
  Plant response rating, Johnsongrass: 15
[1]
  Plant response rating (scale of 0 to 100), Johnsongrass: 40
[2]; [13]
  Corn plant response rating: 0
[2]; [12]
  Corn plant response rating: 0
[2]; [14]
  Plant response rating, Corn: 0
[2]
  Plant response rating (scale of 0 to 100), Corn: 0
[3]; [13]
  Soybean plant response rating: 0
[3]; [12]
  Soybean plant response rating: 5
[3]; [14]
  Plant response rating, Soybean: 40
[3]; 250 g ai/ha
  Plant response rating (scale of 0 to 100), Soybean: 20
[4]; [13]
  Blackgrass plant response rating: 0
[4]; 62 g ai/ha, scale 0 to 100
  Plant response rating, Blackgrass: 10
[4]; [14]
  Plant response rating, Blackgrass: 50
[4]
  Plant response rating (scale of 0 to 100), Blackgrass: 80
[5]; [13]
  Oilseed Rape plant response rating: 0
[5]; [12]
  Oilseed Rape plant response rating: 60
[5]; [14]
  Plant response rating, Oilseed Rape: 20
[5]
  Plant response rating (scale of 0 to 100), Oilseed Rape: 70
[6]; [13]
  Galium plant response rating: 0
[6]; [12]
  Galium plant response rating: 0
[6]; [14]
  Plant response rating, Galium: 85
[6]
  Plant response rating (scale of 0 to 100), Galium: 90
[7]; [13]
  Ryegrass, Italian plant response rating: 0
[7]; [12]
  Ryegrass, Italian plant response rating: 0
[7]; [14]
  Plant response rating, Ryegrass, Italian: 0
[7]; 250 g ai/ha
  Plant response rating (scale of 0 to 100), Ryegrass, Italian: 50
[8]; [13]
  Waterhemp plant response rating: 30
[8]; [12]
  Waterhemp plant response rating: 75
[8]; [14]
  Plant response rating, Waterhemp: 90
[8]; 250 g ai/ha
  Plant response rating (scale of 0 to 100), Waterhemp: 90
[9]; [13]
  Crabgrass, Large plant response rating: 90
[9]; [12]
  Crabgrass, Large plant response rating: 90
[9]; [14]
  Plant response rating, Crabgrass, Large: 100
[9]
  Plant response rating (scale of 0 to 100), Crabgrass, Large: 100
[10]; 0 to 100 scale, 0 is no effect, 100 is complete control
  Plant response rating, Wheat: 20
[10]; 500 g ai/ha
  Wheat plant response rating (0 to 100 scale, 0 is no effect, 100 is complete control): 50
[11]; [13]
  Ragweed plant response rating: 40
[11]; [12]
  Ragweed plant response rating: 35
[11]; [14]
  Plant response rating, Ragweed: 50
[11]; 250 g ai/ha
  Plant response rating (scale of 0 to 100), Ragweed: 85
